In the supplement of paper PMC11208160:

Assay: recombinant barcode read abundance after kanamycin selection (control-corrected) (log10(CPM+1)); higher = more efficient recombination; sequences stand for … in AGTGCAGAGAAAATCGGCCAGTTTTCTCTGCCTGCAGTCCGCATGCCGT…AGATTTATGCAGCGGACTGCCTTTCTCCCAAAGTGATAAACCGGACAGTATCATGGACCGGTTTTCCCGGTAATCCGTATTTGCAAGGTTGGTTTCACT; site = the 11-nt target
Outline: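 Targets and IS621 bridge RNA target-binding loops were paired in oligos, each with a promoter, a barcode and the J23119-driven first 104 bridge RNA bases. A vector carrying the remaining 73 bp and a T7-inducible recombinase received these by Gibson cloning, and the pool was co-electroporated into E. coli with a donor plasmid. Duplicate plates contained chloramphenicol/ampicillin LB agar (control) or chloramphenicol/ampicillin/kanamycin with 0.1 mM IPTG. Recombination efficiency comes from averaged, control-corrected counts per million of recombinant-junction barcodes, reported as log10(CPM+1).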
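Further: IS621 recombinase and bridge RNA in Escherichia coli cells.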

Point of comparison: “CCAATCTCTTGGGTTCTAACCTGTTGCCT (site CCAATCTCTAG)”, “recombinant barcode read abundance (log10)” value 0.276. Against it:
- CATGCTTCTTGGGTTCTAACCTGTTGCCT (site AGAAAAGCTTT) — within 0.2 log units, 0.167
- CATGCTTCTTGGGTTCTAACCTGTTGCCT (site CATGCTTCTAG) — higher, 0.526
- CATGGGACTTGGGTTCTAACCTGTTGCAT (site CATGGGACTAT) — higher, 2.06
- CATGGGACTTGGGTTCTAACCTGTTGCAT (site GGCAAACCTCC) — within 0.2 log units, 0.202
- CATGTGTCTTGGGTTCTAACCTGTTGCGG (site CATGCGCCTCC) — lower, 0.0713
- CATGTGTCTTGGGTTCTAACCTGTTGCGG (site CATGTGTCTCC) — higher, 2.69
- CATTATTCTTGGGTTCTAACCTGTTGCCT (site CATAATTCTAG) — lower, 0.04
- CATTATTCTTGGGTTCTAACCTGTTGCCT (site CATCATTCTAG) — lower, 0.0417
- CATTATTCTTGGGTTCTAACCTGTTGCCT (site CATGATTCTAG) — lower, 0.071
- CATTATTCTTGGGTTCTAACCTGTTGCCT (site CATTATTCTAG) — lower, 0.0377
- CATTCCACTTGGGTTCTAACCTGTTGCCT (site CATTCCACTAG) — within 0.2 log units, 0.369
- CATTCCACTTGGGTTCTAACCTGTTGCCT (site TCGCGTGCTCC) — lower, 0.0105
- CATTCTGCTTGGGTTCTAACCTGTTGCCT (site CAATCTGCTAG) — within 0.2 log units, 0.136
- CATTCTGCTTGGGTTCTAACCTGTTGCCT (site CACTCTGCTAG) — lower, 0.0741
- CATTCTGCTTGGGTTCTAACCTGTTGCCT (site CAGTCTGCTAG) — within 0.2 log units, 0.136
- CATTCTGCTTGGGTTCTAACCTGTTGCCT (site CATTCTGCTAG) — within 0.2 log units, 0.12
- CATTGGACTTGGGTTCTAACCTGTTGCCT (site CAATGGACTAG) — within 0.2 log units, 0.112
- CATTGGACTTGGGTTCTAACCTGTTGCCT (site CACTGGACTAG) — lower, 0.0737
- CATTGGACTTGGGTTCTAACCTGTTGCCT (site CAGTGGACTAG) — within 0.2 log units, 0.084
- CATTGGACTTGGGTTCTAACCTGTTGCCT (site CATTGGACTAG) — higher, 0.662
- CATTGTCCTTGGGTTCTAACCTGTTGCGT (site CATTATCCTAC) — within 0.2 log units, 0.15
- CATTGTCCTTGGGTTCTAACCTGTTGCGT (site CATTGTCCTAC) — higher, 1.38
- CCAAAGGCTTGGGTTCTAACCTGTTGCCT (site CCAAAGGCTAG) — higher, 0.656
- CCAAAGGCTTGGGTTCTAACCTGTTGCCT (site CCTAATGCTAG) — within 0.2 log units, 0.412
- CCAACACCTTGGGTTCTAACCTGTTGCCT (site CCAACACCTAG) — within 0.2 log units, 0.465
- CCAACACCTTGGGTTCTAACCTGTTGCCT (site CCAAGTCCTAG) — within 0.2 log units, 0.0965
- CCAAGCTCTTGGGTTCTAACCTGTTGCCT (site CCAAGCACTAG) — within 0.2 log units, 0.0905
- CCAAGCTCTTGGGTTCTAACCTGTTGCCT (site CCAAGCCCTAG) — within 0.2 log units, 0.177
- CCAAGCTCTTGGGTTCTAACCTGTTGCCT (site CCAAGCGCTAG) — within 0.2 log units, 0.214
- CCAAGCTCTTGGGTTCTAACCTGTTGCCT (site CCAAGCTCTAG) — higher, 1.32
- CCAAGGCCTTGGGTTCTAACCTGTTGCCT (site ACAAGGCCTAG) — within 0.2 log units, 0.161
- CCAAGGCCTTGGGTTCTAACCTGTTGCCT (site CCAAGGCCTAG) — lower, 0.0291
- CCAAGGCCTTGGGTTCTAACCTGTTGCCT (site GCAAGGCCTAG) — within 0.2 log units, 0.28
- CCAAGGCCTTGGGTTCTAACCTGTTGCCT (site TCAAGGCCTAG) — lower, 0.0686
- CCAAGTCCTTGGGTTCTAACCTGTTGCCT (site CCAACACCTAG) — lower, 0.0147
- CCAAGTCCTTGGGTTCTAACCTGTTGCCT (site CCAAGTCCTAG) — higher, 0.892
- CCAATCTCTTGGGTTCTAACCTGTTGCCT (site CGTATCTCTAG) — lower, 0.0477
- CCACCTTCTTGGGTTCTAACCTGTTGCCT (site AGTTGGCCTTC) — within 0.2 log units, 0.161
- CCACCTTCTTGGGTTCTAACCTGTTGCCT (site CCACCTTCTAG) — lower, 0.0666
- CCACGAACTTGGGTTCTAACCTGTTGCTT (site CCAAGTACTAA) — lower, 0
- CCACGAACTTGGGTTCTAACCTGTTGCTT (site CCACGAACTAA) — within 0.2 log units, 0.0915
- CCACGGACTTGGGTTCTAACCTGTTGCCT (site CCAAGGACTAG) — within 0.2 log units, 0.143
- CCACGGACTTGGGTTCTAACCTGTTGCCT (site CCACGGACTAG) — higher, 0.651
- CCACGGACTTGGGTTCTAACCTGTTGCCT (site CCAGGGACTAG) — within 0.2 log units, 0.129
- CCACGGACTTGGGTTCTAACCTGTTGCCT (site CCATGGACTAG) — lower, 0.0265
- CCATACTCTTGGGTTCTAACCTGTTGCTT (site CCATACTCTAA) — higher, 1.17
- CCATACTCTTGGGTTCTAACCTGTTGCTT (site CCATGGTCTAA) — lower, 0
- CCATCCACTTGGGTTCTAACCTGTTGCCT (site CCATCCACTAG) — within 0.2 log units, 0.318
- CCATCCACTTGGGTTCTAACCTGTTGCCT (site TCATCCGCTAG) — lower, 0.0523
- CCATGAACTTGGGTTCTAACCTGTTGCCA (site CCATCAACTAG) — within 0.2 log units, 0.131
- CCATGAACTTGGGTTCTAACCTGTTGCCA (site CCATGAACTTG) — lower, 0.0609
- CCGATCCCTTGGGTTCTAACCTGTTGCCT (site CAGATCCCTAG) — within 0.2 log units, 0.348
- CCGATCCCTTGGGTTCTAACCTGTTGCCT (site CCGATCCCTAG) — higher, 1.4
- CCGATCCCTTGGGTTCTAACCTGTTGCCT (site CGGATCCCTAG) — within 0.2 log units, 0.213
- CCGATCCCTTGGGTTCTAACCTGTTGCCT (site CTGATCCCTAG) — within 0.2 log units, 0.107
- CCGCACACTTGGGTTCTAACCTGTTGCCT (site ACGCACACTAG) — within 0.2 log units, 0.191
- CCGCACACTTGGGTTCTAACCTGTTGCCT (site CCGCACACTAG) — higher, 1.8
- CCGCACACTTGGGTTCTAACCTGTTGCCT (site GCGCACACTAG) — within 0.2 log units, 0.213
- CCGCACACTTGGGTTCTAACCTGTTGCCT (site TCGCACACTAG) — within 0.2 log units, 0.305
- CCGCGAGCTTGGGTTCTAACCTGTTGCCG (site CCGCGAGCTCG) — higher, 0.599
- CCGCGAGCTTGGGTTCTAACCTGTTGCCG (site GATGTGCCTAC) — within 0.2 log units, 0.137
- CCGCTAGCTTGGGTTCTAACCTGTTGCCT (site ACGCTAGCTAG) — lower, 0.0362
- CCGCTAGCTTGGGTTCTAACCTGTTGCCT (site CCGCTAGCTAG) — within 0.2 log units, 0.183
- CCGCTAGCTTGGGTTCTAACCTGTTGCCT (site GCGCTAGCTAG) — lower, 0.0389
- CCGCTAGCTTGGGTTCTAACCTGTTGCCT (site TCGCTAGCTAG) — lower, 0.046
